Assay results taken from ChEMBL document CHEMBL1201862, “PubChem BioAssay data set” (2004).
Active and inactive are the calls of the source.

Assays:
[1] = A cytotoxicity screen of small molecule inhibitors of the PhoP region in Salmonella typhi identified in the primary screen. [Related pubchem assays: 1850, 1864, 1985 ]; type: functional
[2] = HEp-2 cell cytotoxicity, dose response, cytotoxicity control for RSV inhibitor project, HTS (AID 2410); type: functional; details: human respiratory syncytial virus
[3] = inhibitors of Bluetongue virus cytopathic effect, confirmation, arbovirus, BSR cells (AID 1250); type: functional;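 note: protection from viral cytopathic effect measured as cell viability by ATP luminescence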
[4] = molecular target: T1, Long-chain-fatty-acid--AMP ligase FadD28 (Mycobacterium tuberculosis, UniProt P9WQ59); experiment: Fluorescence polarization aasay to screen for inhibitors that compete for the binding of FadD28 to a bisubstrate Measured in Biochemical System Using Plate Reader - 2147-01_Inhibitor_Dose_CherryPick_Activity.; type: functional, Mycobacterium tuberculosis H37Rv
T1 sequence (P9WQ59 whole entry): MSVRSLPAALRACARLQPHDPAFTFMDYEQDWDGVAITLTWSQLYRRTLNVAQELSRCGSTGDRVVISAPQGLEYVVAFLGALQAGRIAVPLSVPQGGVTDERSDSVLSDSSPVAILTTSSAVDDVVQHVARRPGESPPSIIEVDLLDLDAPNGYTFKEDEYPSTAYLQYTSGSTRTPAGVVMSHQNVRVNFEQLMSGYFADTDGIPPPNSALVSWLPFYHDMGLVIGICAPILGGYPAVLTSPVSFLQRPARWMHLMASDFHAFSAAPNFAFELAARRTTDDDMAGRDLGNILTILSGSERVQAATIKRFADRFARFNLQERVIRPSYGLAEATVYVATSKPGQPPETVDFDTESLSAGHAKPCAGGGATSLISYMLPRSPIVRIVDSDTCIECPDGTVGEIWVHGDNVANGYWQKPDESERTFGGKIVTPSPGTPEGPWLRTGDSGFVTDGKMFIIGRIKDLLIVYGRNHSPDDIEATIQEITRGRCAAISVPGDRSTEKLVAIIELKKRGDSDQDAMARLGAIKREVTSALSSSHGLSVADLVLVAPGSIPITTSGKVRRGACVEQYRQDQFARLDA

Genome polyprotein = Genome polyprotein (dengue virus type 2, UniProt P29990); experiment: Dengue-2 NS5 methyltransferase inhibitors, primary screen, biochemical, confirmation dose response (AID 588689); type: functional
Protein Rev = Protein Rev (Human immunodeficiency virus type 1 group M subtype B (isolate WMJ22)(HIV-1), UniProt P05866); experiment: HIV-1 Rev-RRE RNA binding disruptors, dose response, biochemical, protein-RNA interaction (AID 842); set-up: species or system Human immunodeficiency virus 1
Chain of Protein Rev (P05866 whole entry): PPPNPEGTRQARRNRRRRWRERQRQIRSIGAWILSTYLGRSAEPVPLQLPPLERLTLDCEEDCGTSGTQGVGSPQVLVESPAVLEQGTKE

[5] = Luminescence Cell-Based Dose Retest to Confirm Inhibitors of Cancer Stem Cells. [Related pubchem assays (depositor defined):AID2717, AID2721]; type: functional, Homo sapiens; details: Homo sapiens
Insulin-degrading enzyme = molecular target: T2, Insulin-degrading enzyme (Homo sapiens, UniProt P14735); experiment: Dose Response: Fluorescence polarization-based cell-based high throughput dose response assay for inhibitors of insulin-degrading enzyme (IDE). [Related pubchem assays: 434962 (Primary screen (IDE inhibitors in singlicate)), 449730 (Counterscreen (Cytotoxicity in triplicate)), 435028 (Confirmation (IDE inhibitors in triplicate)), 434984 (Summary …; type: functional
T2 sequence (P14735 whole entry): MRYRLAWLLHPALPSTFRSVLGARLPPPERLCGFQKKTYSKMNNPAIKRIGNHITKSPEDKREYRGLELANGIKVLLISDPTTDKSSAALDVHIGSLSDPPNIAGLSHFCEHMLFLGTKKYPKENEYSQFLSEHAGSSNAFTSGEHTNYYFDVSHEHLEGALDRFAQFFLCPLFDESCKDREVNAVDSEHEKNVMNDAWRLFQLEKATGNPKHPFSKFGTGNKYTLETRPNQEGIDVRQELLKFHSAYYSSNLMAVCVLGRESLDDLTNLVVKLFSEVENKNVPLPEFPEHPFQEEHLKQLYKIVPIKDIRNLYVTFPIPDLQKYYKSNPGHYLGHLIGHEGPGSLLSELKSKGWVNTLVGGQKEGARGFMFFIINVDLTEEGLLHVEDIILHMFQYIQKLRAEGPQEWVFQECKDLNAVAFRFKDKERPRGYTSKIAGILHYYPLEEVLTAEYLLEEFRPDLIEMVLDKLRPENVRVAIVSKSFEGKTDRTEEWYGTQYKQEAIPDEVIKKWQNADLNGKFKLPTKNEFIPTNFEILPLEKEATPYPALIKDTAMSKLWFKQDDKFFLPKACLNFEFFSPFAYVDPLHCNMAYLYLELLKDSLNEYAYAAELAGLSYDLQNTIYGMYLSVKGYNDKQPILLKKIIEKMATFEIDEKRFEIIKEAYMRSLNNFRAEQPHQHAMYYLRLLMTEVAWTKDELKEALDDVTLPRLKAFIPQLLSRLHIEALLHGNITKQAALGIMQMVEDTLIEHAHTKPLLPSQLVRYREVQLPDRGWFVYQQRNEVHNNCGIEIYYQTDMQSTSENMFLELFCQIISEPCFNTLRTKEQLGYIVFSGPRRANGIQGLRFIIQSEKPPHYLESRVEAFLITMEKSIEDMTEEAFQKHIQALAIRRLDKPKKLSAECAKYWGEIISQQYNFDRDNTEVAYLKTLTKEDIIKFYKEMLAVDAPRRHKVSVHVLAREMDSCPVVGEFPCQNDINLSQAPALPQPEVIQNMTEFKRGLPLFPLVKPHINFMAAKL

[6] = molecular target: T3, Rac GTPase-activating protein 1 (Homo sapiens, UniProt Q9H0H5); experiment: MgcRacGAP GTPase-activating activity inhibitors, confirmation, biochemical, ADP Hunter fluorescence, primary and confirmatory (AID 624330); type: functional
T3 sequence (Q9H0H5 whole entry): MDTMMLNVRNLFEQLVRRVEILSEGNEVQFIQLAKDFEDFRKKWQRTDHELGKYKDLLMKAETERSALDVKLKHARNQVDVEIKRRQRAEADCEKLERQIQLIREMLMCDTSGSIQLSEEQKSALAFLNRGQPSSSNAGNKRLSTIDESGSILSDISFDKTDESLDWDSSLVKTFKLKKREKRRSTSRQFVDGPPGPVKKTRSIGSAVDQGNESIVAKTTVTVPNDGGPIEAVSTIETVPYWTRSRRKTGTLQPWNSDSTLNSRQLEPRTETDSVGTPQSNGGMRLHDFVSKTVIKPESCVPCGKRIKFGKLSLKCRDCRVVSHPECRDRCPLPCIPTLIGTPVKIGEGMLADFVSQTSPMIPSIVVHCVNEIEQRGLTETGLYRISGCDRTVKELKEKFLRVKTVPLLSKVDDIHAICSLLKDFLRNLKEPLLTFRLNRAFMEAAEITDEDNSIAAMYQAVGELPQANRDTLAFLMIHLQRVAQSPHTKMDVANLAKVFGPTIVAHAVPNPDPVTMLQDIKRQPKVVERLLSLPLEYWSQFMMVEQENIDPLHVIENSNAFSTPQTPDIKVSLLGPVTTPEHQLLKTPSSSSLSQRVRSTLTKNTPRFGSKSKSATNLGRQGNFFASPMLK

[7] = Counterscreen for IDE inhibitors: Luminescence-based cell-based high throughput dose response assay to identify compounds that are cytotoxic to HEK cells. [Related pubchem assays: 434962 (Primary screen (IDE inhibitors in singlicate)), 449730 (Counterscreen (Cytotoxicity in triplicate)), 435028 (Confirmation (IDE inhibitors in triplicate)) …; type: functional; details: HEK293
[8] = molecular target: T4, Histone-lysine N-methyltransferase NSD2 (Homo sapiens, UniProt O96028); type: biochemical
T4 sequence (O96028 whole entry): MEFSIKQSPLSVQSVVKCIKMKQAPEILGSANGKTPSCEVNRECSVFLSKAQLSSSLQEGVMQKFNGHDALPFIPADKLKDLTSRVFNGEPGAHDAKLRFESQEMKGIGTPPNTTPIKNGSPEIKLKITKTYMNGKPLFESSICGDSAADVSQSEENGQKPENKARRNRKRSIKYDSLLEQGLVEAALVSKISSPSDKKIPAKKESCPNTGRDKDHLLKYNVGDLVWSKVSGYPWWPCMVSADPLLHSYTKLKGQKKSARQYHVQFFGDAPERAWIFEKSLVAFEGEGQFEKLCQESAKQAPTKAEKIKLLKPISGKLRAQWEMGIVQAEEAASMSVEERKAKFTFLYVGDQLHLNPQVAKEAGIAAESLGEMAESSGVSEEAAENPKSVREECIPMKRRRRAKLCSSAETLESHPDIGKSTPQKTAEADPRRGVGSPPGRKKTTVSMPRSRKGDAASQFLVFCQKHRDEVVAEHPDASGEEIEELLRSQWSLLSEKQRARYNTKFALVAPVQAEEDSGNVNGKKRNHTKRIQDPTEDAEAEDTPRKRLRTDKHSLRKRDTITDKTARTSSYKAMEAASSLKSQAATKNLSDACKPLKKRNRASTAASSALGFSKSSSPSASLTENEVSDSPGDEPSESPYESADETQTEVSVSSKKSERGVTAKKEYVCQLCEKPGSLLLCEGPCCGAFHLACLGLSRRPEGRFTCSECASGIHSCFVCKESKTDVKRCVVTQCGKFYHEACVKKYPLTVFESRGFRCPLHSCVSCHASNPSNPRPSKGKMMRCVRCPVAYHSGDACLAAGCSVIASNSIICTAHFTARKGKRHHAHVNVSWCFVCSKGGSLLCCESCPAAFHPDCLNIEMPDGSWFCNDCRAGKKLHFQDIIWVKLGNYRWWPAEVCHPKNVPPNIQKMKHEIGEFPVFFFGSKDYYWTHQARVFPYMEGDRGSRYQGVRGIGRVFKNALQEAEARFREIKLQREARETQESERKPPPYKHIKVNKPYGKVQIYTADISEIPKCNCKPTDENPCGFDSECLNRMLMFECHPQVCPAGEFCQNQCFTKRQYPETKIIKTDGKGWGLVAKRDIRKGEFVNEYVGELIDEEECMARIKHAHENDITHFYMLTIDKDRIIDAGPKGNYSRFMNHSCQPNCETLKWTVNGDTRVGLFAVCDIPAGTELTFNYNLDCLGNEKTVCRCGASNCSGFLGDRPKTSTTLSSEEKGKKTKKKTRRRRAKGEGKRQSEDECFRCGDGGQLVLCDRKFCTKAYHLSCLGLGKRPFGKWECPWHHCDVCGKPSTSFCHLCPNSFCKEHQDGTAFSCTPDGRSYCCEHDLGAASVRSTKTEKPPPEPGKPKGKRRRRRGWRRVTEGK

[9] = molecular target: Glucose-6-phosphate 1-dehydrogenase (Homo sapiens, UniProt P11413); experiment: human G6PD enzyme inhibitors, dose response, selectivity assay for P. falciparum G6PD inhibitor project, biochemical, fluorescence (AID 504792); type: functional
[10] = molecular target: T5, Voltage-gated N-type calcium channel alpha-1B subunit/Amyloid beta A4 precursor protein-binding family A member 1 (Homo sapiens, UniProt Q00975+Q02410); type: protein assay
T5 sequence (Q00975 whole entry): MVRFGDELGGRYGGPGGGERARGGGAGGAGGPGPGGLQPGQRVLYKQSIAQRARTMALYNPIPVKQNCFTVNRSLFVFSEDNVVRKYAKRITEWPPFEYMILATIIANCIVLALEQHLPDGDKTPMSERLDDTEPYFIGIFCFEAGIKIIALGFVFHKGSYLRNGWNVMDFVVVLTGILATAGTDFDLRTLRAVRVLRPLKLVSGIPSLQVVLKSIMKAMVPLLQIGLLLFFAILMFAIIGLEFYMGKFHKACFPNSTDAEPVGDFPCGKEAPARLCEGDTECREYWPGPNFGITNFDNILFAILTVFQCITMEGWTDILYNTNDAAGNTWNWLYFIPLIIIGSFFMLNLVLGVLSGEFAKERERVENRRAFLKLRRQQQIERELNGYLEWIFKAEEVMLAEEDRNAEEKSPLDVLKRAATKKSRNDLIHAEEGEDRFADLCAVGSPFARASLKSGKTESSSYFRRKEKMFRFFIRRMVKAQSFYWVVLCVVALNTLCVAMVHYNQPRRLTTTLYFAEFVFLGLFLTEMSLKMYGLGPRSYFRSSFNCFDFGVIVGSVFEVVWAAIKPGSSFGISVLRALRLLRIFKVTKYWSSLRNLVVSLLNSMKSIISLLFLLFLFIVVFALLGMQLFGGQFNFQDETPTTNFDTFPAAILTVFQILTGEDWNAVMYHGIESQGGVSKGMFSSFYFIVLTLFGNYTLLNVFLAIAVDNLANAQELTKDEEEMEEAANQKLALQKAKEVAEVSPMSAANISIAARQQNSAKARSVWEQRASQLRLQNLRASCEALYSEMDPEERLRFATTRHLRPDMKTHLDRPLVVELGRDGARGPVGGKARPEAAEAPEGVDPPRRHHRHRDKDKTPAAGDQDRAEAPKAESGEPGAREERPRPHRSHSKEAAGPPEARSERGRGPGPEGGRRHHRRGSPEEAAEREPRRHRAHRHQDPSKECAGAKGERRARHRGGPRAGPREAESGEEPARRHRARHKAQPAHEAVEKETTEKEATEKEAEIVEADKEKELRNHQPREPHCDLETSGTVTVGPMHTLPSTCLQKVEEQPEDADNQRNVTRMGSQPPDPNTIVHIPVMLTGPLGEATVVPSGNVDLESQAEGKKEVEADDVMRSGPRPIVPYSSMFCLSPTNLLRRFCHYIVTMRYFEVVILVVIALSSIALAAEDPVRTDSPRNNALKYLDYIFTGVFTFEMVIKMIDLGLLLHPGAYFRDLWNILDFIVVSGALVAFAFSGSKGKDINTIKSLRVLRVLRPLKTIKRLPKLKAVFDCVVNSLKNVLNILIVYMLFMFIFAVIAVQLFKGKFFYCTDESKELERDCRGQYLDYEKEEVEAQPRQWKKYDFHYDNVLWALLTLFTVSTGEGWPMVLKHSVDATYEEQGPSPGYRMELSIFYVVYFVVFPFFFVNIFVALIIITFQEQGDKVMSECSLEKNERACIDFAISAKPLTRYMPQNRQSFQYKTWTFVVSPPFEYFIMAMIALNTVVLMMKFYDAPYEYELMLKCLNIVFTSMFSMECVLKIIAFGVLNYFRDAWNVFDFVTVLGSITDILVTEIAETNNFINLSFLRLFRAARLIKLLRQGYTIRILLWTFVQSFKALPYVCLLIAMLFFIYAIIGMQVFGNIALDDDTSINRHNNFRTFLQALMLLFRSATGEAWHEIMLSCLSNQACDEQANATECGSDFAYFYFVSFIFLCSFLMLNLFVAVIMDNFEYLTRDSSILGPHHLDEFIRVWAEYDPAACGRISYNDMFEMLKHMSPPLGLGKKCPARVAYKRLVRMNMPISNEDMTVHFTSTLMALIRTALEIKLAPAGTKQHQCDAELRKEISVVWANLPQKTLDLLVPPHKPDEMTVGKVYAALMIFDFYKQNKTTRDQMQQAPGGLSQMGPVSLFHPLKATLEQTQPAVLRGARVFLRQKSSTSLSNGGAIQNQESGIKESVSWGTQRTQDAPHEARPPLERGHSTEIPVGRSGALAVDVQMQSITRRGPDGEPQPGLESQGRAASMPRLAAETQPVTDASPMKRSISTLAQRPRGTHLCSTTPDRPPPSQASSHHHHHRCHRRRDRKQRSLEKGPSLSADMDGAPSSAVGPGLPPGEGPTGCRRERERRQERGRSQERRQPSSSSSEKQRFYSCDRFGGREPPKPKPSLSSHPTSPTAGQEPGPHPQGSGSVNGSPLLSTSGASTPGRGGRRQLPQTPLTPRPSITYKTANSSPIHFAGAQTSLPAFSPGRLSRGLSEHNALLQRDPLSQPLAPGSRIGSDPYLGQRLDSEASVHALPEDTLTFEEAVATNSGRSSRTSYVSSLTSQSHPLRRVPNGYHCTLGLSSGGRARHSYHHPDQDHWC
T5 sequence (Q02410 whole entry): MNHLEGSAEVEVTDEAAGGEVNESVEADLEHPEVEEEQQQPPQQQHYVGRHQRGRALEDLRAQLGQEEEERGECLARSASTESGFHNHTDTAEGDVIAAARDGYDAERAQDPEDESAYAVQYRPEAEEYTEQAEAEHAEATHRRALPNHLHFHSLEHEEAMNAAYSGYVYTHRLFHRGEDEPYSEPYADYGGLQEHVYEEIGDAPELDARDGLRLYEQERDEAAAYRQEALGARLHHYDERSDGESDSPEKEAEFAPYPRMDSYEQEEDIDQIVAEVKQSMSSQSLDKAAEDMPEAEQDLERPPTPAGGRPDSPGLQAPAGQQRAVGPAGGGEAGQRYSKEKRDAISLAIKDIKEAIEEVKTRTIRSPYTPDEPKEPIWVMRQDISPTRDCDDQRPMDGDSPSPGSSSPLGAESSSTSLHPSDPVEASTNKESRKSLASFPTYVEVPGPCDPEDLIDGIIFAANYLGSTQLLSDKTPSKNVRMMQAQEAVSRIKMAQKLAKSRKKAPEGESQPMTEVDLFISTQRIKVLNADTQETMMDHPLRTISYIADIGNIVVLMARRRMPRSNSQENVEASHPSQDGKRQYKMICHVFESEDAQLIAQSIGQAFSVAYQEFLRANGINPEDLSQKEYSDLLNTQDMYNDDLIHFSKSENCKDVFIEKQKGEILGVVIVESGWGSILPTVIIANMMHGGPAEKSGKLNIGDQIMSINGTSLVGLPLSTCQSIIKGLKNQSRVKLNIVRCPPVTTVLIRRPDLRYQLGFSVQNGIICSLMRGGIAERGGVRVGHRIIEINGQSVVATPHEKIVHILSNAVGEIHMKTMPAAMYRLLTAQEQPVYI

[11] = molecular target: T5, Voltage-gated N-type calcium channel alpha-1B subunit/Amyloid beta A4 precursor protein-binding family A member 1; type: protein assay; remark: listed apart in the source
[12] = molecular target: DNA dC->dU-editing enzyme APOBEC-3A (Homo sapiens, UniProt P31941); experiment: APOBEC3A DNA deaminase inhibitors, dose response, biochemical (AID 504722); type: functional
Chain of DNA dC->dU-editing enzyme APOBEC-3A (P31941 whole entry): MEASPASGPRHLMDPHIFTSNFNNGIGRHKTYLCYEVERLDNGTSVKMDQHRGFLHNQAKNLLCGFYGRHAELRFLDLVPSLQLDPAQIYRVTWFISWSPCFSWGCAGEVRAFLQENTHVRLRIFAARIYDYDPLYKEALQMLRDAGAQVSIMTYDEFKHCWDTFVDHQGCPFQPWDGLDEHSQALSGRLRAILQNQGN

[13] = molecular target: SWI/SNF-related matrix-associated actin-dependent regulator of chromatin subfamily A member 2 (Homo sapiens, UniProt P51531); experiment: Luminescence-based cell-based high throughput dose response assay to identify activators of the function of SWI/SNF related, matrix associated, actin dependent regulator of chromatin, subfamily a, member 2 (SMARCA2, BRM).; type: functional
Chain of SWI/SNF-related matrix-associated actin-dependent regulator of chromatin subfamily A member 2 (P51531 whole entry): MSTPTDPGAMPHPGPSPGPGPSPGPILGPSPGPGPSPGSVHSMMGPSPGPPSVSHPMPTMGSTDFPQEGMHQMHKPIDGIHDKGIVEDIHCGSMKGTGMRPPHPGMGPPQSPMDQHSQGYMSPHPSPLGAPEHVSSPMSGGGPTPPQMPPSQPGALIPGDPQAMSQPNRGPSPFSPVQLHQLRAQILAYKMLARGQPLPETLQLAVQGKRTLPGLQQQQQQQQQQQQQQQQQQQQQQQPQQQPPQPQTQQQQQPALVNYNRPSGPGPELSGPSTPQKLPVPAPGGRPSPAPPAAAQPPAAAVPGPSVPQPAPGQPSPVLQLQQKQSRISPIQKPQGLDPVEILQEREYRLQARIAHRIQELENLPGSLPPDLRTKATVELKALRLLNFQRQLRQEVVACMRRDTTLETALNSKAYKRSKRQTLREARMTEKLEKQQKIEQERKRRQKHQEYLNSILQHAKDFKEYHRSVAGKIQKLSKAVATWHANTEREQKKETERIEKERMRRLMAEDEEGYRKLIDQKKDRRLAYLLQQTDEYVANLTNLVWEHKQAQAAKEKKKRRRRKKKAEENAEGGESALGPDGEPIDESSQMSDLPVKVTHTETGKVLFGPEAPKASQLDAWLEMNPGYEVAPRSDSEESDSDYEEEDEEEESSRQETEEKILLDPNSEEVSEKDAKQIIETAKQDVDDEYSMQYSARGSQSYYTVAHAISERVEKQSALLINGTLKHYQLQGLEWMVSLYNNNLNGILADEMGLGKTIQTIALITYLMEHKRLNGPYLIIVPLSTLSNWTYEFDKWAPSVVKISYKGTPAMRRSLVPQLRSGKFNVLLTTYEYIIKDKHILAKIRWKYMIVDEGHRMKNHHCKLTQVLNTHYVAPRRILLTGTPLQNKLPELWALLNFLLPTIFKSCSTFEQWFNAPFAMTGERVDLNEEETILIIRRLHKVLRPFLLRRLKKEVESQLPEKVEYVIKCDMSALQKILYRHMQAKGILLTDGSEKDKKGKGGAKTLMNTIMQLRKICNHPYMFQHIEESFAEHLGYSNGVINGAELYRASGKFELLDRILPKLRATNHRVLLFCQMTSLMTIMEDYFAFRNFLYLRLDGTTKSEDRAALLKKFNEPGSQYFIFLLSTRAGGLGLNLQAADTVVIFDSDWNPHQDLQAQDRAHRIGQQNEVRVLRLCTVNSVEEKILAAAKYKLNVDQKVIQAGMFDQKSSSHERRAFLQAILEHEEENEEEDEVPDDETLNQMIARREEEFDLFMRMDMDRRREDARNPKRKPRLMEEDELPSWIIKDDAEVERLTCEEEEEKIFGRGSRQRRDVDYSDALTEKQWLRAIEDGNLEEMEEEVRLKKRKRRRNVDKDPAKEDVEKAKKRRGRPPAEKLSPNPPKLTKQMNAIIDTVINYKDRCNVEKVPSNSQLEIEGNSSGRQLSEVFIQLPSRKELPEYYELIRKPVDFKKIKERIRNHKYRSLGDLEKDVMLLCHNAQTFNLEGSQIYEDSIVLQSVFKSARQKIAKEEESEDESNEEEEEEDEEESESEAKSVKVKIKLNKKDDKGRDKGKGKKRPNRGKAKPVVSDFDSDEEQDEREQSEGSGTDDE

[14] = cytotoxicity toward NIH3T3 fibroblasts, dose response, counter-screen, cell-based, ATP luminescence, mouse fibroblasts (AID 2010); type: functional; details: NIH3T3;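 note: cells exposed to compound for about 90 hours before reading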
[15] = inhibitors of intracellular T. cruzi replication, confirmation, NIH3T3 host cells, beta-gal luminescence (AID 2044); type: functional, cell-based;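 note: intracellular parasites grown in NIH/3T3 mouse fibroblasts as host cells; luminescent beta-galactosidase reporter signal from transgenic T. cruzi replicating inside host cells; inhibitors lower the luminescence signal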
[16] = Counterscreen for activators of the function of SWI/SNF related, matrix associated, actin dependent regulator of chromatin, subfamily a, member 2 (SMARCA2, BRM): Luminescence-based cell-based high throughput dose response assay to identify non-selective compounds using the VP16 reporter assay.; type: functional

O=C(Cc1ccc(Br)cc1)c1ccc(O)cc1O
EC50 [1]: > 50 µM (active)

CC(=N)/C(C#N)=C(/O)COc1ccc(Cl)cc1Cl
CC50 [2]: > 50 µM (active)
IC50 (cells): 49.6 µM (active)

O=C(O)CC/C(=C\c1ccc(N2CCCC2)c([N+](=O)[O-])c1)c1nc2ccccc2s1
IC50 [3]: 27.8 µM (active)
AC50 [4]: > 100 µM (inactive)
IC50 (Genome polyprotein): 43.1 µM (active)
CC50 [2]: 33.3 µM (active)

COc1ccccc1NC1=NC(c2ccc(Cl)cc2)N=C(N)N1 (stereo unspecified)
IC50 (Protein Rev): > 79.4 µM (not active)

N#C/C(=C/c1ccc(O)c(O)c1)C(=O)NCc1ccc(Cl)cc1
AC50 [5]: 6.32 µM (active)
IC50 (Insulin-degrading enzyme): 11.6 µM (not active)
IC50 [6]: 34.5 µM (active)
IC50 [7]: 35.9 µM (not active)
AC50 [8]: 5.16 µM (active)

COc1cccc(CNS(=O)(=O)c2ccc3c(c2)NC(=O)CS3)c1
EC50 [1]: > 50 µM (active)

Cc1cc(C)c2c(=O)n(CC(=O)Nc3ccc(Br)c(C)c3)sc2n1
IC50 [9]: 49.2 µM (inactive)
IC50 [10]: > 56.8 µM (not active)
IC50 (Insulin-degrading enzyme): 4.54 µM (active)
IC50 [11]: > 50 µM (inactive)
IC50 [12]: > 100 µM (inactive)
IC50 [7]: 17.5 µM (not active)

COc1ccc(OC)c(-n2c(SCC(=O)NCc3ccco3)nnc2-c2c[nH]c3ccccc23)c1
IC50 (cells): > 50 µM (active)

Cc1nc(Nc2ccncc2)c2oc3ccccc3c2n1
EC50 [13]: > 91.2 µM (inactive)
IC50 (Protein Rev): > 79.4 µM (not active)
EC50 [14]: > 60 µM (not active)
EC50 [15]: 2.47 µM (active)
EC50 [16]: > 91.2 µM (inactive)
